Where a chain is given by its changes, count along the chain named. Blank lines part the entries; values can stand above or below the compound they belong to. Active and inactive are the calls of the source. The rule behind the calls is not given here.
Columns and labels:
[1] = test system: T1, Lysosomal acid glucosylceramidase (Homo sapiens), P04062 [N409S]; test: Activation of beta-glucocerebrosidase in human N370S cells assessed as increase of residual activity at 0.05 to 100 uM after 3 days; type: cell-based
T1 sequence (whole entry): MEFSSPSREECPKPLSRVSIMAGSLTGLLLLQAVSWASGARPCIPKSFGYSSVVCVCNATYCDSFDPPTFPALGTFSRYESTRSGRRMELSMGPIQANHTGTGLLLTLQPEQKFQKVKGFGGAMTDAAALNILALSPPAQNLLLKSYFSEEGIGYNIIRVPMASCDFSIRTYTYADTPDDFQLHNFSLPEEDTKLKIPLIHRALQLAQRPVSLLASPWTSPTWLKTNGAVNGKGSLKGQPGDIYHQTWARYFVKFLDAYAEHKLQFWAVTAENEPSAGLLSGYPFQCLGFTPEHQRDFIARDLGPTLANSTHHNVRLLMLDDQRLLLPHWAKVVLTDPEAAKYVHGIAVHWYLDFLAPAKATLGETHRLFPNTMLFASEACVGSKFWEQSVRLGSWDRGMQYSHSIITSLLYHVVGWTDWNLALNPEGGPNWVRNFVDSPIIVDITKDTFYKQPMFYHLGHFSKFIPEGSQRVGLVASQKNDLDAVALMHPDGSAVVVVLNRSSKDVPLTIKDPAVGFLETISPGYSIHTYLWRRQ

[2] = target: T2, Lysosomal acid glucosylceramidase (Homo sapiens, UniProt P04062); test: Inhibition of partially purified human placental beta-glucocerebrosidase after 15 to 60 mins
T2 sequence (P04062 whole entry): T1 sequence (whole entry) with S409N

[3] = test system: HL-60; test: Inhibition of endoplasmic reticulum alpha-glucosidase 1 in human HL-60 cells assessed as free oligosaccharide level at 50 uM after 24 hrs; type: cell-based
[4] = target: T3, Neutral alpha-glucosidase AB (Homo sapiens) (UniProt Q14697); test: Inhibition of endoplasmic reticulum alpha-glucosidase 2 in human HL-60 cells assessed as free oligosaccharide level at 50 uM after 24 hrs; type: cell-based
T3 sequence (whole entry): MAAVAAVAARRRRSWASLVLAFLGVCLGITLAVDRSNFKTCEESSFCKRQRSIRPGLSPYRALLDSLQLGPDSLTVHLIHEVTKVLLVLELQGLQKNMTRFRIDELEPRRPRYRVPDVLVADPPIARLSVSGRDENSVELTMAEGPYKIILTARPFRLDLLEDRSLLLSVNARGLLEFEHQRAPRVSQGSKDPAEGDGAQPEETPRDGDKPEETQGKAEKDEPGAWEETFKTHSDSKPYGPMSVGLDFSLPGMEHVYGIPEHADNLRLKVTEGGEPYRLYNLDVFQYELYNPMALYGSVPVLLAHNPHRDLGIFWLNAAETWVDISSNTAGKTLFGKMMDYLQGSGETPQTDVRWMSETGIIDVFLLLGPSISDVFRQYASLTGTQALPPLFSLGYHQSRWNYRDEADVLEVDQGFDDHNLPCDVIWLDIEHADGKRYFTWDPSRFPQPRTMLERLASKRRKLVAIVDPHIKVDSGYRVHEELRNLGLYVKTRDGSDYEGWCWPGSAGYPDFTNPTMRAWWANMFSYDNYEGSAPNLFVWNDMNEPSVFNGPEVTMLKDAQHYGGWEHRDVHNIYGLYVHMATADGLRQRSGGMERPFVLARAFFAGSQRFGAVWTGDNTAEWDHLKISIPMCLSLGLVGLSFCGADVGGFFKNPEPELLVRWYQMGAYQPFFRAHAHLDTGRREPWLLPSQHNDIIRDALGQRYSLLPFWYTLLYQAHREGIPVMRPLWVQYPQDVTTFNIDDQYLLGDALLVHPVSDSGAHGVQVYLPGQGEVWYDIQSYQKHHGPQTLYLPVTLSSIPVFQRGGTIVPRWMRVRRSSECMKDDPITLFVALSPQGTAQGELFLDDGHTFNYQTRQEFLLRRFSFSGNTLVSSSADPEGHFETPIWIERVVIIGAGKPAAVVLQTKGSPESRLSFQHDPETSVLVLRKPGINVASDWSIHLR

[5] = organism: Rattus norvegicus; test: Inhibition of rat liver alpha-glucosidase 2 assessed as conversion of Glc2Man7GlcNAc2 to Glc1Man7GlcNAc2 at 100 uM after 1.25 hrs
[6] = organism: Rattus norvegicus; test: Inhibition of rat liver alpha-glucosidase 2 assessed as conversion of Glc2Man7GlcNAc2 to Man7GlcNAc2 at 100 uM after 1.25 hrs
[7] = organism: Rattus norvegicus; test: Inhibition of rat liver alpha-glucosidase 2 assessed as conversion of Glc2Man7GlcNAc2 to Glc1Man7GlcNAc2 at 500 uM after 1.25 hrs
[8] = target: T3, Neutral alpha-glucosidase AB (Homo sapiens); test: Inhibition of endoplasmic reticulum alpha-glucosidase 2 in human HL-60 cells assessed as free oligosaccharide level at 500 uM after 24 hrs; type: cell-based
[9] = test system: HL-60; test: Inhibition of endoplasmic reticulum alpha-glucosidase 1 in human HL-60 cells assessed as free oligosaccharide level at 500 uM after 24 hrs; type: cell-based
[10] = test system: T1, Lysosomal acid glucosylceramidase (Homo sapiens), P04062 [N409S]; test: Activation of beta-glucocerebrosidase in human N370S cells assessed as increase of residual activity at 0.05 to 100 uM after 3 days relative to control; type: cell-based
[11] = organism: Rattus norvegicus; test: Inhibition of rat liver alpha-glucosidase 2 assessed as conversion of Glc2Man7GlcNAc2 to Man7GlcNAc2 at 500 uM after 1.25 hrs

Activity [1]: inactive | IC50 [2]: 60 µM
Compound: CCCCCCCCCN1[C@@H]2CC[C@@]1(O)[C@@H](O)[C@H](O)[C@H]2CO

inhibition [4]: Active | inhibition [5]: Active | inhibition [6]: Active
Compound: CCCCN1C[C@H](O)[C@@H](O)[C@H](O)[C@H]1CO
inhibition [3]: Active

Compound: O[C@@H]1[C@@H](O)[C@H](O)[C@]2(O)CC[C@H]1N2 [CALYSTEGINE B2]
IC50 [2]: 1 µM

Compound: CCCCN1[C@@H]2CC[C@@]1(O)[C@@H](O)[C@H](O)[C@H]2CO
Activity [1]: inactive | IC50 [2]: 100 µM

Compound: OC[C@@H]1[C@@H](O)[C@H](O)[C@]2(O)CC[C@H]1N2 [NOEUROSTEGINE]
inhibition [7]: inactive | inhibition [8]: inactive | inhibition [9]: inactive | fold change (FC) [10]: 1.82 | inhibition [11]: inactive | IC50 [2]: 0.4 µM

From ChEMBL document CHEMBL1681653, “Synthesis of N-alkylated noeurostegines and evaluation of their potential as treatment for Gaucher's disease” (Bioorg Med Chem Lett, 2011)
